This experiment has as its system wild type MDA MB231 cells. The experiment is described as follows: Bmal1::dluc rhythm in wild type MDA MB231 cells. The class given is cell-based. As for the experimental part: We used Bmal1::dluc U2-OS and Per1::dluc NIH 3T3, and continuously monitored the bioluminescence to record circadian rhythm. This experiment was performed in 96-well plates (triplicates) and 35-mm dishes (duplicates) in the secondary screen and detailed characterization steps respectively. Briefly, cells were seeded to reach confluency. A day after, the medium was replaced with DMEM containing 0.1 μM Dexamethasone to synchronize cells. […] The 96-well plates were covered and bioluminescence was monitored by Synergy H1 Hybrid Multi-Mode Reader every 32 minutes. […] Bioluminescence was recorded every 10 minutes for 4-6 days. […] The first day's data was excluded from the analysis due to transient perturbations of luminescence after the medium change.
HEK 293T cells at 75-85% confluency were transfected with […] of pLV6-Bmal-luc plasmid, 9 ng of pCMV-AR8.2dvpr packaging vector and 1 ng of pCMV-VSVG envelope vector for 16 h. […] At 72-hour post-transduction, the circadian rhythms of cells monitored using Lumicycle.
We used Bmal1::dluc U2-OS and Per1::dluc NIH 3T3, and continuously monitored the bioluminescence to record circadian rhythm. […] The 96-well plates were covered and bioluminescence was monitored by Synergy H1 Hybrid Multi-Mode Reader every 32 minutes. […] Bioluminescence was recorded every 10 minutes for 4-6 days. […]

For the molecule `CC1(C)CCc2c(cc(OCC(=O)Nc3ccccc3C(N)=O)c3c(-c4ccccc4)cc(=O)oc23)O1` [CLK8, 2-[2-({12,12-dimethyl-4-oxo-6-phenyl-3,11-dioxatricyclo [8.4.0.0,2,7]tetradeca-1,5,7,9-tetraen-8-yl}oxy)acetamido] benzamide], the “amplitude of circadian rhythm” value is given as “enhance amplitude”.

(Values after patent US12558342B2, “2-[2-({12,12-dimethyl-4-oxo-6-phenyl-3,11-dioxatricyclo[8.4.0.0,2,7]tetradeca-1,5,7,9-tetraen-8-yl}oxy)acetamido]benzamide and derivatives as inhibitor of clock:bmal1 interaction for the treatment of circadian rhythm diseases and disorders” (KOC UNIVERSITESI, priority 2019, dated 2026).)
